Laboratory results from publication PMC12736120, “First-in-Human Phase I Clinical Trial of SLC-391, a Novel and Selective AXL Inhibitor, in Patients with Advanced Solid Tumours” (Pharmaceuticals, 2025).

Experiment: Phase I safety and tolerability (DLTs, adverse events, laboratory, ECG)
Format: in vivo
Procedure: This study employed a standard 3 + 3 dose escalation design with a starting dose of 25 mg QD. […] Dose escalation decisions took into account all available data from evaluable subjects as well as PK and the safety profile of prior dose cohorts. […] There was a minimum 5-day stagger between dosing of the first and second subjects in each dose cohort. Dose escalation decisions were made by a data review committee (DRC) composed of, at minimum, the medical monitor, at least one principal investigator, and a sponsor representative, per the study DRC Plan. Dose escalation could continue until 2 or more subjects in the same dose cohort experienced a dose-limiting toxicity (DLT). DLTs were defined as Grade 3 or 4 adverse drug reactions (ADRs), with grades as defined in the National Cancer Institute Common Toxicity Criteria for Adverse Events (NCI-CTCAE) version 5.0. […] The MTD was defined as the highest dose at which no more than 1 of 6 subjects experienced a DLT during cycle 1 of the study drug. The MTD would have been exceeded if 2 or more subjects in a dose cohort of up to 6 subjects experienced a DLT. Subjects could continue treatment until disease progression, unacceptable toxicity, death, withdrawal of consent, or loss to follow-up.
Before enrolment in the study, all patients received a detailed medical history and physical examination. Clinical laboratory evaluations included clinical chemistry, complete blood count, urinalysis, coagulation factors, and a lipid panel. Other safety assessments included vital signs, physical examination, electrocardiogram, and echocardiogram with multigated acquisition (ECHO/MUGA). Safety assessments were performed on days 1, 8, 15, and 21 of cycle 1, and on day 1 of cycles 2 to 6.

[1] = Grade 3, Overall Study (N = 35)
[2] = Grade All, Overall BID (N = 15)
[3] = Grade All, Overall Study (N = 35)

Question: What does the source list for `Nc1ncc(-c2cnn(C3CCNCC3)c2)cc1-c1nnc(CC2CC2)o1` [SLC-391, 3-(5-[cyclopropylmethyl]-1,3,4-oxadiazol-2-yl)-5-(1-[piperidin-4-yl]-1H-pyrazol-4-yl)-pyridin-2-amine]?
Answer: TEAE: Metabolism and nutrition disorders (Grade 3, Overall BID (N = 15)): 0 n (%); TEAE: Musculoskeletal and connective tissue disorders (Grade 3, Overall BID (N = 15)): 1 (6.7) n (%); TEAE: Nausea (Grade 3, Overall BID (N = 15)): 0 n (%); TEAE: Renal and urinary disorders (Grade 3, Overall BID (N = 15)): 1 (6.7) n (%); TEAE: Respiratory, thoracic, and mediastinal disorders (Grade 3, Overall BID (N = 15)): 0 n (%); TEAE: Skin and subcutaneous tissue disorders (Grade 3, Overall BID (N = 15)): 1 (6.7) n (%); TEAE: Vascular disorders (Grade 3, Overall BID (N = 15)): 1 (6.7) n (%); TEAE: Vomiting (Grade 3, Overall BID (N = 15)): 0 n (%); Any treatment-emergent adverse event (TEAE) (Grade 3, Overall QD (N = 20)): 6 (30.0) n (%); TEAE: Blood and lymphatic system disorders (Grade 3, Overall QD (N = 20)): 1 (5.0) n (%); TEAE: Diarrhoea (Grade 3, Overall QD (N = 20)): 0 n (%); TEAE: Dyspnoea (Grade 3, Overall QD (N = 20)): 1 (5.0) n (%); TEAE: Fatigue (Grade 3, Overall QD (N = 20)): 0 n (%); TEAE: Gastrointestinal disorders (Grade 3, Overall QD (N = 20)): 3 (15.0) n (%); TEAE: General disorders and administration site conditions (Grade 3, Overall QD (N = 20)): 0 n (%); TEAE: Infections and infestations (Grade 3, Overall QD (N = 20)): 1 (5.0) n (%); TEAE: Metabolism and nutrition disorders (Grade 3, Overall QD (N = 20)): 2 (10.0) n (%); TEAE: Musculoskeletal and connective tissue disorders (Grade 3, Overall QD (N = 20)): 1 (5.0) n (%); TEAE: Nausea (Grade 3, Overall QD (N = 20)): 1 (5.0) n (%); TEAE: Renal and urinary disorders (Grade 3, Overall QD (N = 20)): 0 n (%); TEAE: Respiratory, thoracic, and mediastinal disorders (Grade 3, Overall QD (N = 20)): 2 (10.0) n (%); TEAE: Skin and subcutaneous tissue disorders (Grade 3, Overall QD (N = 20)): 0 n (%); TEAE: Vascular disorders (Grade 3, Overall QD (N = 20)): 1 (5.0) n (%); TEAE: Vomiting (Grade 3, Overall QD (N = 20)): 1 (5.0) n (%); Any treatment-emergent adverse event (TEAE) [1]: 12 (34.3) n (%); TEAE: Blood and lymphatic system disorders [1]: 2 (5.7) n (%); TEAE: Diarrhoea [1]: 1 (2.9) n (%); TEAE: Dyspnoea [1]: 1 (2.9) n (%); TEAE: Fatigue [1]: 1 (2.9) n (%); TEAE: Gastrointestinal disorders [1]: 4 (11.4) n (%); TEAE: General disorders and administration site conditions [1]: 1 (2.9) n (%); TEAE: Infections and infestations [1]: 2 (5.7) n (%); TEAE: Metabolism and nutrition disorders [1]: 2 (5.7) n (%); TEAE: Musculoskeletal and connective tissue disorders [1]: 2 (5.7) n (%); TEAE: Nausea [1]: 1 (2.9) n (%); TEAE: Renal and urinary disorders [1]: 1 (2.9) n (%); TEAE: Respiratory, thoracic, and mediastinal disorders [1]: 2 (5.7) n (%); TEAE: Skin and subcutaneous tissue disorders [1]: 1 (2.9) n (%); TEAE: Vascular disorders [1]: 2 (5.7) n (%); TEAE: Vomiting [1]: 1 (2.9) n (%); Any treatment-emergent adverse event (TEAE) [2]: 15 (100.0) n (%); TEAE: Abdominal distension [2]: 3 (20.0) n (%); TEAE: Abdominal pain [2]: 0 n (%); TEAE: Back pain [2]: 2 (13.3) n (%); TEAE: Blood and lymphatic system disorders [2]: 2 (13.3) n (%); TEAE: Chills [2]: 4 (26.7) n (%); TEAE: Constipation [2]: 7 (46.7) n (%); TEAE: Cough [2]: 3 (20.0) n (%); TEAE: Decreased appetite [2]: 5 (33.3) n (%); TEAE: Diarrhoea [2]: 9 (60.0) n (%); TEAE: Dizziness [2]: 0 n (%); TEAE: Dysgeusia [2]: 2 (13.3) n (%); TEAE: Dyspnoea [2]: 5 (33.3) n (%); TEAE: Fatigue [2]: 10 (66.7) n (%); TEAE: Gastrointestinal disorders [2]: 13 (86.7) n (%); TEAE: General disorders and administration site conditions [2]: 12 (80.0) n (%); TEAE: Haematuria [2]: 4 (26.7) n (%); TEAE: Headache [2]: 3 (20.0) n (%); TEAE: Infections and infestations [2]: 7 (46.7) n (%); TEAE: Investigations [2]: 3 (20.0) n (%); TEAE: Metabolism and nutrition disorders [2]: 5 (33.3) n (%); TEAE: Musculoskeletal and connective tissue disorders [2]: 6 (40.0) n (%); TEAE: Nausea [2]: 11 (73.3) n (%); TEAE: Nervous system disorders [2]: 5 (33.3) n (%); TEAE: Oedema peripheral [2]: 2 (13.3) n (%); TEAE: Psychiatric disorders [2]: 3 (20.0) n (%); TEAE: Pyrexia [2]: 2 (13.3) n (%); TEAE: Renal and urinary disorders [2]: 5 (33.3) n (%); TEAE: Respiratory, thoracic, and mediastinal disorders [2]: 8 (53.3) n (%); TEAE: Skin and subcutaneous tissue disorders [2]: 3 (20.0) n (%); TEAE: Urinary tract infection [2]: 3 (20.0) n (%); TEAE: Vascular disorders [2]: 2 (13.3) n (%); TEAE: Vomiting [2]: 6 (40.0) n (%); TEAE: Weight decreased [2]: 2 (13.3) n (%); Any treatment-emergent adverse event (TEAE) (Grade All, Overall QD (N = 20)): 19 (95.0) n (%); TEAE: Abdominal distension (Grade All, Overall QD (N = 20)): 3 (15.0) n (%); TEAE: Abdominal pain (Grade All, Overall QD (N = 20)): 5 (25.0) n (%); TEAE: Back pain (Grade All, Overall QD (N = 20)): 2 (10.0) n (%); TEAE: Blood and lymphatic system disorders (Grade All, Overall QD (N = 20)): 2 (10.0) n (%); TEAE: Chills (Grade All, Overall QD (N = 20)): 2 (10.0) n (%); TEAE: Constipation (Grade All, Overall QD (N = 20)): 7 (35.0) n (%); TEAE: Cough (Grade All, Overall QD (N = 20)): 4 (20.0) n (%); TEAE: Decreased appetite (Grade All, Overall QD (N = 20)): 7 (35.0) n (%); TEAE: Diarrhoea (Grade All, Overall QD (N = 20)): 11 (55.0) n (%); TEAE: Dizziness (Grade All, Overall QD (N = 20)): 4 (20.0) n (%); TEAE: Dysgeusia (Grade All, Overall QD (N = 20)): 2 (10.0) n (%); TEAE: Dyspnoea (Grade All, Overall QD (N = 20)): 7 (35.0) n (%); TEAE: Fatigue (Grade All, Overall QD (N = 20)): 12 (60.0) n (%); TEAE: Gastrointestinal disorders (Grade All, Overall QD (N = 20)): 17 (85.0) n (%); TEAE: General disorders and administration site conditions (Grade All, Overall QD (N = 20)): 15 (75.0) n (%); TEAE: Haematuria (Grade All, Overall QD (N = 20)): 1 (5.0) n (%); TEAE: Headache (Grade All, Overall QD (N = 20)): 2 (10.0) n (%); TEAE: Infections and infestations (Grade All, Overall QD (N = 20)): 4 (20.0) n (%); TEAE: Investigations (Grade All, Overall QD (N = 20)): 5 (25.0) n (%); TEAE: Metabolism and nutrition disorders (Grade All, Overall QD (N = 20)): 9 (45.0) n (%); TEAE: Musculoskeletal and connective tissue disorders (Grade All, Overall QD (N = 20)): 8 (40.0) n (%); TEAE: Nausea (Grade All, Overall QD (N = 20)): 13 (65.0) n (%); TEAE: Nervous system disorders (Grade All, Overall QD (N = 20)): 10 (50.0) n (%); TEAE: Oedema peripheral (Grade All, Overall QD (N = 20)): 2 (10.0) n (%); TEAE: Psychiatric disorders (Grade All, Overall QD (N = 20)): 2 (10.0) n (%); TEAE: Pyrexia (Grade All, Overall QD (N = 20)): 3 (15.0) n (%); TEAE: Renal and urinary disorders (Grade All, Overall QD (N = 20)): 1 (5.0) n (%); TEAE: Respiratory, thoracic, and mediastinal disorders (Grade All, Overall QD (N = 20)): 11 (55.0) n (%); TEAE: Skin and subcutaneous tissue disorders (Grade All, Overall QD (N = 20)): 7 (35.0) n (%); TEAE: Urinary tract infection (Grade All, Overall QD (N = 20)): 1 (5.0) n (%); TEAE: Vascular disorders (Grade All, Overall QD (N = 20)): 3 (15.0) n (%); TEAE: Vomiting (Grade All, Overall QD (N = 20)): 11 (55.0) n (%); TEAE: Weight decreased (Grade All, Overall QD (N = 20)): 4 (20.0) n (%); Any treatment-emergent adverse event (TEAE) [3]: 34 (97.1) n (%); TEAE: Abdominal distension [3]: 6 (17.1) n (%); TEAE: Abdominal pain [3]: 5 (14.3) n (%); TEAE: Back pain [3]: 4 (11.4) n (%); TEAE: Blood and lymphatic system disorders [3]: 4 (11.4) n (%); TEAE: Chills [3]: 6 (17.1) n (%); TEAE: Constipation [3]: 14 (40.0) n (%); TEAE: Cough [3]: 7 (20.0) n (%); TEAE: Decreased appetite [3]: 12 (34.3) n (%); TEAE: Diarrhoea [3]: 20 (57.1) n (%); TEAE: Dizziness [3]: 4 (11.4) n (%); TEAE: Dysgeusia [3]: 4 (11.4) n (%); TEAE: Dyspnoea [3]: 12 (34.3) n (%); TEAE: Fatigue [3]: 22 (62.9) n (%); TEAE: Gastrointestinal disorders [3]: 30 (85.7) n (%); TEAE: General disorders and administration site conditions [3]: 27 (77.1) n (%); TEAE: Haematuria [3]: 5 (14.3) n (%); TEAE: Headache [3]: 5 (14.3) n (%); TEAE: Infections and infestations [3]: 11 (31.4) n (%); TEAE: Investigations [3]: 8 (22.9) n (%); TEAE: Metabolism and nutrition disorders [3]: 14 (40.0) n (%)
